For orientation: IC50 means the concentration that inhibits the measured activity by half. The low end stands for greater potency, the high end for weaker potency.

In this experiment the target is Receptor-interacting serine/threonine-protein kinase 2 (Homo sapiens, UniProt O43353). Briefly: TR-FRET Assay: All data was collected using a standard TR-FRET screening assay: LanthaScreen Tracer 199 at 50 nM, Eu-anti-His Antibody at 2 nM, 5 nM RIPK2 enzyme, and 1× Kinase Reaction Buffer. There was a 1 hour incubation prior to read. TR-FRET signal of the interaction (340Ex/665Em/615Em) was read at room temperature with standard setting. Background was subtracted of wells containing no enzyme. Percent inhibition was based on uninhibited controls log (inhibitor) vs. response. Variable slope equation was used with no constraints: Log Y=Bottom+(Top−Bottom)/(1+10^((Log IC50−X)*Hill Slope)).Analytical Instrumentation:NMR: Bruker UltraShield™-300 or Bruker Ascend™-400 spectrometers.LCMS: Shimadzu LCMS-2020 or Agilent technologies 1260 Infinity-6120 Quadrupole LC/MS.Purification:TLC plates: Thin-layer chromatography with E. Merck silica gel 60 F254 pre-coated plates (0.25 mm).Flash chromatography: Agela Technologies CHEETAH-MP200 CH16200 2T-A0099 or Biotage Isolera ISO-PSV ISPS 1832112.

Each structure is given as a SMILES string.

Sequence of Receptor-interacting serine/threonine-protein kinase 2 (O43353 whole entry): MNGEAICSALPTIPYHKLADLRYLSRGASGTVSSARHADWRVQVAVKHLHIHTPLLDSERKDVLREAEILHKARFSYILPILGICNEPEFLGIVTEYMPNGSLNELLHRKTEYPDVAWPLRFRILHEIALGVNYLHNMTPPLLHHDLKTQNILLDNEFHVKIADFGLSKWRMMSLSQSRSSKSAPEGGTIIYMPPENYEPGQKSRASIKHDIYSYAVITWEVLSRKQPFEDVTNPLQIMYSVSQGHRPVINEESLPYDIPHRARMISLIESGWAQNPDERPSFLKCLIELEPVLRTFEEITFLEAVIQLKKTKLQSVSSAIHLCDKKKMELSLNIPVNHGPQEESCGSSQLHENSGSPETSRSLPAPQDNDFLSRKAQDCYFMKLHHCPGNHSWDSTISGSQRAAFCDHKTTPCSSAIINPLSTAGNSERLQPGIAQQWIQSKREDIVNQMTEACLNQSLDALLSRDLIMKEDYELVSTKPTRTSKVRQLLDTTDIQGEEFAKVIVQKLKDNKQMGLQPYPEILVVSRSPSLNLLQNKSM

Compound `C[C@@H]1[C@H](c2cc3c(Nc4ccc5scnc5c4F)ccnc3s2)CCCN1C` gave an IC50 of less than 10 nM.

The values are drawn from ChEMBL document CHEMBL5728816, “Thienopyridine inhibitors of RIPK2” (2021).
